This note sets out measurements from PMC3252466 (Chirality, 2011).

The term IC50 denotes the concentration that gives 50% inhibition.

Series [1] addresses human CYP2C9 (Homo sapiens, UniProt P11712). Conditions: read-out: IC50 CYP2C9; recombinant human CYP2C9 15 nM, 150 μM MFC, 45 min, 37°C; mean (95% confidence interval).
Series [2] deals with human CYP2C19 (Homo sapiens, UniProt P33261). To be noted: read-out: IC50 CYP2C19; recombinant human CYP2C19 7.5 nM, 25 μM CEC, 30 min, 37°C; mean (95% confidence interval).
Series [3] has as its target CYP2B6 (Homo sapiens, UniProt P20813). To be noted: concentrations up to 10 μM; pooled HLMs, 100 μM bupropion; data not shown.

Sequence of human CYP2C19 (P33261 whole entry): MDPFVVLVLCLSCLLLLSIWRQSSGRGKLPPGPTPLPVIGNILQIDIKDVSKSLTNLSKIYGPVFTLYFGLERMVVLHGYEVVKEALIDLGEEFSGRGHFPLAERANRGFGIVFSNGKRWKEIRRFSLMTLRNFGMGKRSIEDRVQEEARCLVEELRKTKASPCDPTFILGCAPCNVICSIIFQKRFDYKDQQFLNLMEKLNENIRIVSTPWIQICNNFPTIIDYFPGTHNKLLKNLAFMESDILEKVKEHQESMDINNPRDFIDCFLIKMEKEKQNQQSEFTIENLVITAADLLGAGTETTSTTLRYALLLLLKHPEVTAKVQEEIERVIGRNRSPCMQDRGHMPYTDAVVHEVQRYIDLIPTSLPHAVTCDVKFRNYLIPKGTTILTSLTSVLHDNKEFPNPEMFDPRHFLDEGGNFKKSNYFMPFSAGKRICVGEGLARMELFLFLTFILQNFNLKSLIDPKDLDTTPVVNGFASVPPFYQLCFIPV
Sequence of human CYP2C9 (P11712 whole entry): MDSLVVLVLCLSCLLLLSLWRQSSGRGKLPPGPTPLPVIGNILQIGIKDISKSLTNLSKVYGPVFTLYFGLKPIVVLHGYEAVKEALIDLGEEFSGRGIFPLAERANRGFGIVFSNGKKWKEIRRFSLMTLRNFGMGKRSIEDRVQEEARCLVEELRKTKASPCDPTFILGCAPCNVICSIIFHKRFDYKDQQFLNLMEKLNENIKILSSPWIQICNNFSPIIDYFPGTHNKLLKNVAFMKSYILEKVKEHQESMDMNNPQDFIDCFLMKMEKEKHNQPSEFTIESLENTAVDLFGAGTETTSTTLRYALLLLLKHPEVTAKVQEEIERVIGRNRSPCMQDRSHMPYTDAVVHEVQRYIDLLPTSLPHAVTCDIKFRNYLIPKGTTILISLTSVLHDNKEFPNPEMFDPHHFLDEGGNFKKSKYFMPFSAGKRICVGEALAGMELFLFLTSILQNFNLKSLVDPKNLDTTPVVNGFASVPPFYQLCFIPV
Sequence of CYP2B6 (P20813 whole entry): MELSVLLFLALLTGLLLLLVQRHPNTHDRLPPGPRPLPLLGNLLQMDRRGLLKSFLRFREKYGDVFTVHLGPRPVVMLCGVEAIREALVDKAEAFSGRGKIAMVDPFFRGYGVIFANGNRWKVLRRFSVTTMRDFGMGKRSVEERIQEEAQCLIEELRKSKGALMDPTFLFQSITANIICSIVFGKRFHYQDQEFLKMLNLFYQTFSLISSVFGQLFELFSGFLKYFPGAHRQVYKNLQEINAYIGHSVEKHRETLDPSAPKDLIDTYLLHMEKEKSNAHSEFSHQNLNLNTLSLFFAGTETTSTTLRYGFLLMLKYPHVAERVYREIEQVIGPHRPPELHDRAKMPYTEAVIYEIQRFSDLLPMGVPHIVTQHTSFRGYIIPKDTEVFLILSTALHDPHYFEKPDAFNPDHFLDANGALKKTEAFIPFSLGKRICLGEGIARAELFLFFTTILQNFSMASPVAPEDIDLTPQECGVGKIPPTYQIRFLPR

For the compound `O=C1C[C@H](c2ccc(O)cc2)Oc2cc(O)cc(O)c21` [(R)-naringenin], the IC50 in series [1] stood at 1600 nM; in series [2], 4900 nM. On the same counts, the results for `O=C1C[C@@H](c2ccc(O)cc2)Oc2cc(O)cc(O)c21` [(S)-naringenin] are 3400 nM and 1200 nM. Take naringenin [rac-naringenin]: the “Inhibition of CYP2B6” value in series [3] is “No appreciable inhibition”.
